Reference: patent publication US12083105B2, “Compositions and methods for treating adult-onset neuronal ceroid lipofuscinosis (Kufs disease)” (CORNELL UNIVERSITY, priority 2020, dated 2024)

Test system: synaptic SNARE-complex
Assay: SNARE-complex assembly in primary neurons (Syb-2 immunoprecipitation, co-IP of Synt-1 and SNAP-25)
Format: cell-based, mice
Conditions: CSPα^L115R and CSPα^L116Δ expressing neurons; 200 μM, 72 h; compared to vehicle only; FIG. 3E
From the text: For the experiments shown in FIGS. 3A-3E, primary cortical neurons from neonatal CSPα^−/− mice were infected with lentiviruses expressing Myc-tagged CSPα^WT, CSPα^L115R, CSPα^L116Δ, SSPα, or empty lentivirus (Control) on 7 days in vitro (DIV) and examined on 17 DIV. […] The lentivirus infected cells were stained using antibodies against Myc (green), somatodendritic marker MAP2 (red), and counterstained with nuclear stain DAPI (blue). […] Immunoprecipitation (IP) for SNAP-25 was followed by quantitative immunoblotting of the co-immunoprecipitated (co-IP'd) CSPα (top blot), and normalized to the IP'd SNAP-25 (bottom blot). IP: Control=sham IP without IgG. Palm=palmitoylated. […] N.D.=not detected. […] Immunoprecipitation using anti-synaptobrevin-2 (Syb-2) antibody was followed by quantitative immunoblotting of co-IP'd SNARE-complex partners syntaxin-1 (Synt-1) and SNAP-25. […] Cell extracts were separated by SDS-PAGE, and subjected to quantitative immunoblotting using anti-SNAP-25 antibody and β-actin for normalization. To measure palmitoylation, oligomers were disrupted by lysing neurons in 0.1 N HCl plus 0.1% Triton X-100 for 20 min at 4° C., followed by SDS-PAGE and quantitative immunoblotting against CSPα. […] FIG. 3D (right panel) show quantitation of oligomers, palmitoylated CSPα, respectively, in corresponding lane and expressed as a percentage of total. […]

| SMILES | level of co-immunoprecipitated Synt-1 and SNAP-25 (SNARE-complex assembly) |
| --- | --- |
| CC(=O)N(O)CCCCCNC(=O)CCC(=O)N(O)CCCCCNC(=O)CCC(=O)N(O)CCCCCN [Dfx, N′-[5-(Acetyl-hydroxy-amino)pentyl]-N-[5-[3-(5-aminopentyl-hydroxy-carbamoyl)propanoylamino]pentyl]-N-hydroxy-butane diamide] | increased level |
| Cc1c(O)c(=O)ccn1C [L1, 3-hydroxy-1,2-dimethyl-4(1H)-pyridone] | increased level |
